The record followed here is patent US20260191817A1, “FIBROBLAST MODULATORS IN STROMA-RICH TUMORS” (UNIVERSITEIT GENT, priority 2022, published 2026).

Structures are written as SMILES.

Test [1] relates to human invasive MCF-7/6 mammary carcinoma cells. The test is described as follows: Chick heart invasion (CHI) assay with MCF-7/6 aggregates. The class given is cell-based. As to conditions: MCF7/6, 192 h, lowest concentration at which an anti-invasive effect (histological grade I or II) was observed, 8 days, read-out: Lowest active concentration. As for the experimental part: Chick heart invasion assays were performed as described earlier (Bracke et al. 2014). Precultured heart fragments of 9-day-old chicken embryos were confronted with MCF-7/6 aggregates on top of a semi-solid agar at 37° C. overnight, after which the confronting pairs were cultured in suspension for 8 days at 37° C., 10% CO2 in presence or absence of a test compound (in duplo). This procedure can also be performed with aggregates of 4T1-Luc cells, for which the suspension culture of the confronting pairs is performed for 3.5 days. All compounds were evaluated at 1 μM and 100 nM; depending on the outcome higher or lower concentrations were subsequently evaluated. Upon fixation in Bouin-Hollande, the cultures were dehydrated and embedded in paraffin. Sections of the confrontation cultures were stained with hematoxylin-eosin are blinded and scored by a trained person (Bracke et al., 2014).
In the chick heart invasion assay cancer cells are confronted with a fragment of normal tissue, so as not to neglect the contribution of the host tissue in the micro-ecosystem that governs tumor behavior. As such, precultured heart tissue fragments (PHFs), dissected from 9-day-old chicken embryos, may be confronted with aggregates of human invasive MCF-7/6 mammary carcinoma cells or other cells in the presence of a certain concentration of a test compound. After eight days for MCF-7/6, or another period depending on the cell type, the interaction between the cancer cells and the PHF is evaluated histologically and classified along a 5-grades subjective scale (Bracke et al. 2014). Grades III and IV are typical for invasion, while grades 0, I and II correspond to absence of invasion. Compounds that inhibit invasion of confronting cancer cells i.e. from III/IV to 0/I/II, are determined as anti-invasive. Possible alternative assays generally known in the art are the type I collagen invasion assay, wound healing assay and the matrigel invasion assay.
The chick heart invasion (CHI) assay is a phenotypic assay that confronts precultured heart tissue fragments (PHFs, ‘normal tissue’), obtained from 9-day-old chicken embryos, with aggregates of human invasive MCF-7/6 mammary carcinoma cells (Bracke et al. 2014). In the control situation, the MCF-7/6 cells encircle, invade and destroy the PHF over an 8-day period. Invasion in this assay is defined as the progressive occupation and destruction of the PHF by the MCF-7/6 cells. Three-dimensional reconstruction of this interaction is obtained by microscopic analysis of all consecutive histological sections of the culture. The read-out is an invasion score according to a 5-grades histological scale.
The CHI closely reproduces the temporal, spatial and histological invasion patterns in man. The co-culture set-up probes for effects on both tumor cells and host tissue, and thus interrogates potential pharmacological targets in either interaction partner. Its use of histological evaluation allows discerning anti-invasive action from cytotoxicity or other effects.
We have submitted flavones B1-B4, flavanones B5-B8 and the intermediate 2′-hydroxychalcones A9, All and A12 to the chick heart invasion assay using MCF-7/6 aggregates. All compounds were evaluated at 1 μM and 100 nM; depending on the outcome higher or lower concentrations were subsequently evaluated. […] This table also includes CHI data on chalcones A1, A2 and A5.

For test [2], the system named is 13B2 hTERT breast CAFs. The test is described as follows: AFM spheroid stiffness, 13B2 hTERT breast CAFs. The class given is cell-based, human. As to conditions: 48 h during spheroid formation; for Young's modulus / spheroid stiffness: 1 μM; for spheroid stiffness: 10 μM. The text has this:
(§1) It is well established that an increased tumor and ECM stiffness is associated with a negative prognosis as it promotes tumor growth, progression, therapy resistance, immunosuppression and metastasis. Stiffness is chiefly regulated by the action of the CAFs in the TME. Stiffness modulation is, therefore, a fitting read-out of activity in a screen for CAF modulators. To assess stiffness modulation, the stiffness of spheroids of CAF cells treated with test compounds was interrogated using atomic force microscopy (AFM) indentation and compared with untreated cells. AFM measurement of the stiffness (elasticity) of cells and spheroids is a technique well-known to those skilled in the art. AFM measures the force required to create a given deflection, this read-out is also known as the Young's modulus. AFM is widely used in biology and cancer research: altered physicochemical properties of live cells serve as a read-out of altered complex physiological processes.
(§2) U-shaped, 384-well ULA plates (cat. no. MS-9384UZ, S-bio) were seeded with a suspension of cell-specific culture media with cells. Cells were allowed to form spheroids for an appropriate time under treatment conditions before use in experiments. Cell culture dishes (cat. no. 734-2814, VWR) were filled with collagen gel and placed at 37° C. for an appropriate time to allow solidification. For each condition, spheroids were pooled in one cell culture dish. The medium was removed (stored at 37° C.) to promote attachment of the bottom of each spheroid to the collagen gel. The cell culture dishes were incubated at 37° C. After the incubation period, the stored medium was carefully (prevent detachment of spheroids) added to the dishes.
(§3) Mechanical measurements were performed using an atomic force microscope. To indent the spheroids an in-house made colloidal probe was used. Force curves were collected using an appropriate setpoint and probe speed (depending on the stiffness of the spheroids). On each spheroid multiple force curves were collected. Collected curves were then processed using the JPK DP software. Young's modulus was extracted from the force curves. All experiments were performed in biological triplicate.
(§4) To generate 3D cultures mimicking the complexity and pathophysiology of in vivo tumors, spheroids were used (cfr. point 4). Spheroids are considered to better simulate cellular heterogeneity, nutrient and oxygen gradients, cell-cell interactions, cell-matrix interactions, gene expression profiles, stromal interactions, therapeutic responses, multicellular resistance, drug penetration and anti-apoptotic signaling.

The subject of test [3] is CAF03 glioblastoma CAFs. Nature of the test: AFM spheroid stiffness, CAF03 glioblastoma CAFs. The class given is cell-based. The note with it: 10 μM, 48 h.
Text: as §1, §2, §3, §4

The subject of test [4] is HCA2 hTERT dermal fibroblasts. The test is described as follows: AFM spheroid stiffness, HCA2 hTERT dermal fibroblasts. The class given is cell-based. The note with it: HCA2 hTERT normal dermal fibroblasts; 10 μM, 48 h. As for the experimental part: (§5) Selectivity for CAFs with respect to normal fibroblasts and other cell types was assessed by performing an identical experiment with normal fibroblasts and other cell types, where compounds were considered selective for CAFs if they only modulate CAF stiffness.
as §2, §3, §4

Test [5] concerns MCF-7/6 breast cancer cells. The test is described as follows: AFM spheroid stiffness, MCF-7/6 breast cancer cells. The class given is cell-based, human. As to conditions: 10 μM, 48 h. As for the experimental part: as §5, §2, §3, §4
Test [6] concerns primary glioblastoma (GBM) cells. Nature of the test: AFM spheroid stiffness, primary glioblastoma cells. The note with it: 10 μM, 48 h. The class given is cell-based, human. How it is done:
as §5, §2, §3, §4

Test [7] relates to primary human atrial fibroblasts. Nature of the test: AFM spheroid stiffness, primary human atrial fibroblasts. The class given is cell-based. As to conditions: 10 μM, 48 h. As for the experimental part:
as §5, §2, §3, §4

In the case of `COc1ccc(C(=O)/C=C/c2ccc(Cl)cc2)cc1` [Compound A2, 3-(4-Chlorophenyl)-1-(4-methoxyphenyl)prop2-en-1-one], the minimal effective concentration in test [1] was found to be 0.01 µM.

With `COc1ccc(C(=O)/C=C/c2ccc(F)cc2)cc1` [Compound A5, 3-(4-Fluorophenyl)-1-(4-methoxyphenyl)prop2-en-1-one], in test [1], the minimal effective concentration came out at 1 µM.

Regarding `O=C(/C=C/c1ccccc1)c1ccccc1` [Compound A8, 1,3-Diphenvlprop2-en-1-one], the “Young's modulus / spheroid stiffness” value in test [2] was “did not have an effect”.

In the case of `COc1cc(O)c(C(=O)/C=C/c2ccc(F)cc2)c(OC)c1OC` [Compound A10, 3-(4-Fluorophenyl)-1-(6-hydroxy-2,3,4-trimethoxyphenyl)prop-2-en-1-one], the minimal effective concentration in test [1] is 0.01 µM.

Take `COc1ccc(C(=O)/C=C/c2ccc(F)cc2)c(O)c1` [Compound A12, 3-(4-fluorophenyl)-1-(2-hydroxy-4-methoxyphenyl)prop-2-en-1-one]: in test [1], the minimal effective concentration was 1 µM.

For `COc1ccc(C(=O)/C=C/c2ccc(Cl)cc2)c(O)c1` [Compound A13, 3-(4-chlorophenyl)-1-(2-hydroxy-4-methoxyphenyl)prop-2-en-1-one], the minimal effective concentration in test [1] was 0.1 µM.

As to `COc1ccc(C(=O)/C=C/c2ccc(F)cc2)cc1C(F)(F)F` [Compound A14, 3-(4-Fluorophenyl)-1-(4-methoxy-3-(trifluoromethyl)phenyl)prop-2-en-1-one], the “Young's modulus / spheroid stiffness” value in test [2] is reported as “decreased”.

As for `COc1cc2c(=O)cc(-c3ccc(F)cc3)oc2c(OC)c1OC` [Compound B2, 2-(4-Fluorophenyl)-6,7,8-trimethoxy-4H-chromen-4-one], the minimal effective concentration in test [1] turned out to be 10 µM.

Regarding `COc1ccc2c(=O)cc(-c3ccc(F)cc3)oc2c1` [Compound B3, 2-(4-Fluorophenyl)-7-methoxy-4H-chromen-4-one], the minimal effective concentration in test [1] came out at 0.01 µM.

Consider `COc1ccc2c(=O)cc(-c3ccc(Cl)cc3)oc2c1` [Compound B4, 2-(4-Chlorophenyl)-7-methoxy-4H-chromen-4-one], for which the minimal effective concentration in test [1] was 0.01 µM.

On to `COc1cc2c(c(OC)c1OC)C(=O)CC(c1ccc(F)cc1)O2` (centres unmarked) [Compound B5, 2-(4-Fluorophenyl)-5,6,7-dimethoxychroman-4-one], for which the minimal effective concentration in test [1] is 0.1 µM.

On to `COc1cc2c(c(OC)c1OC)OC(c1ccc(F)cc1)CC2=O` (centres unmarked) [Compound B6, 2-(4-Fluorophenyl)-6,7,8-dimethoxychroman-4-one], for which the minimal effective concentration in test [1] was 100 µM.

As for `COc1ccc2c(c1)OC(c1ccc(F)cc1)CC2=O` (centres unmarked) [Compound B7, 2-(4-Fluorophenvl)-7-methoxvchroman-4-one], the minimal effective concentration in test [1] amounted to 10 µM.

Take `COc1ccc2c(c1)OC(c1ccc(Cl)cc1)CC2=O` (centres unmarked) [Compound B8, 2-(4-Chlorophenyl)-7-methoxvchroman-4-one]: the minimal effective concentration in test [1] worked out at 0.1 µM.

For the molecule `C[C@@H](N)[C@H]1CC[C@H](C(=O)Nc2ccncc2)CC1` [Compound Y-27632, Y-27632, reference compound], the spheroid stiffness result in test [2] is listed as “active”; in test [3], “active”; in test [4], “reduced the stiffness”; in test [5], “reduced the stiffness”; in test [6], “reduced the stiffness”; in test [7], “reduced the stiffness”.

In the case of `Cc1ccc2c(c1)C(=O)C1(O)CCN(c3ccccc3)C1=N2` (centres unmarked) [blebbistatin, reference compound], the spheroid stiffness entry in test [2] is “active”; in test [3] it was “active”; in test [4] it was “reduced the stiffness”; in test [5] it was “reduced the stiffness”; in test [6] it was “reduced the stiffness”; in test [7], “reduced the stiffness”.

`C=C1[C@@H](C)[C@H]2[C@H](Cc3ccccc3)NC(=O)[C@]23[C@H](OC(C)=O)/C=C/[C@@](C)(O)C(=O)[C@@H](C)C/C=C/[C@H]3[C@@H]1O` [cytochalasin D, reference compound]: the spheroid stiffness entry in test [2] is recorded as “active”; in test [3], “active”; in test [4], “reduced the stiffness”; in test [5], “reduced the stiffness”; in test [6], “reduced the stiffness”; in test [7], “reduced the stiffness”.
